“And” between values parts separate entries of the source, which are not always exact repeats. Equal values may be shown once.
How the values were obtained:
Cos-7 cells = system: Cos-7 cells; design: method as in earlier work; conditions: MTT test; Table S1, previously assessed characteristics; cited from earlier work
[1] = MTT cytotoxicity assay on HepG2 cells; type: cell-based, human; conditions: human
Protocol: (§1) To assess the cytotoxicity properties of BPPB, the MTT (3-(4,5-dimethylthiazol-2-yl)-2,5-diphenyltetrazolium bromide) cell proliferation assay (Abcam, Prodotti Gianni s.r.l., Milano, Italy, Cat#ab2011091) was performed, following the manufacturer’s protocol, as previously reported. This time, the increasing concentrations of BPPB were in the range of 0.4–85.3 µM. The cell survival rate, expressed as cell viability percentage (%), was evaluated based on the experimental outputs of treated groups vs. the untreated groups (CTR) and was calculated as follows: cell viability (%) = (OD treated cells − OD blank)/(OD untreated cells − OD blank) × 100%.
(§2) In this study, the cytotoxicity profile of BPPB was assessed in both immortalized human liver cells (HepG2) cells, as in our previous works, and in transformed African green monkey kidney fibroblast cells (Cos-7), as reported in a recent paper. Specifically, we evaluated the cytotoxicity of BPPB by carrying out both the MTT proliferation assay and the lactate dehydrogenase (LHD) cytotoxicity assay, which measures the LDH activity as an indicator of cell death. Both cell lines were exposed for 24 h to increasing concentrations of BPPB (0.4–85.3 µM). Growth inhibition/death were determined by the MTT test, while cell cytotoxicity was determined by LDH assay, with respect to untreated control cells. Results are reported as bar graphs in Figure 8 and as dispersion graphs in Figures S13 and S14 in Supplementary Materials (Section S2).

HepG2 cells = assay: MTT cytotoxicity assay on HepG2 cells; type: cell-based, human; conditions: for IC50: MTT, concentration range 0.4–85.3 µM
Protocol: as §1, §2

In the case of c1ccc([P+](CCCCCCCCCCCC[P+](c2ccccc2)(c2ccccc2)c2ccccc2)(c2ccccc2)c2ccccc2)cc1 [BPPB, 1,1-(1,12-dodecanediyl)bis [1,1, 1]-triphenylphosphonium di-bromide], the “IC50 COS-7 cell” value (Cos-7 cells) is given as 5.76 ± 0.95 µg/mL, the viability at 24 h ([1]; HepG2 cells, 8.5 µM and 4.3 µM, which value belongs to which concentration is not stated, read-out: Cell viability HepG2 (MTT)) is given as 64.5% and the selectivity ratio at 24 h ([1]; read-out: Selectivity index (SI) = IC50 HepG2 / IC50 HTLA-ER) is given as 8.7. For the same molecule, the “Selectivity index (SI) = IC50 HepG2 / IC50 HTLA-230” value (HepG2 cells; 24 h) was 40.6 and 40.63, the “Selectivity index (SI) = IC50 HepG2 / IC50 HTLA-ER” value (HepG2 cells; 24 h) was 8.68 and the IC50 (HepG2 cells; 24 h) was 9.64 ± 1.31 µM. The IC50 (HepG2 cells; Homo sapiens, HepG2, 24 h) was 9.6 µM and the “Concentrations with a safety profile toward HepG2” value (HepG2 cells; MTT test, 24 h) was at most 8.5 µM.
